Results as given in patent US20160227774A1 (priority 2015, published 2016).
Where “and” joins values, the source holds several entries; their conditions need not be identical. Equal entries are not always repeated. Structures can show the parent of a compound that is named as a salt. Where two headings read alike, the source gives them in different places.

How the values were obtained:
[1] = test system: Candidatus Liberibacter asiaticus (Las); type: in vivo
HLB disease = assay: Trial I (Example 3): HLB disease severity (sAUDPS), Midsweet orange, foliar spray; type: in vivo, Citrus sinensis; settings: end of the experiment
[2] = test system: Candidatus Liberibacter asiaticus (Las); type: in vivo; remark: listed apart in the source
[3] = test system: Ca. Liberibacter asiaticus; type: in vivo, Candidatus Liberibacter asiaticus; settings: for CT, 1 (mean CT values 1-week after injection) / CT, 0 (mean CT values prior to injection): 4 trees; for CT, 0 (mean CT values prior to injection): baseline; for Effect on Las bacterial populations (in words): second trial, statistical significance only in the first trial
[4] = test system: Candidatus Liberibacter asiaticus (Las); type: in vivo; settings: BABA 1.0 mM, 2-DDG 100 μM; for Reduction of Las titer compared to control at the end of the experiments: Example 5, Murcott mandarin (10-year), foliar spraying
[5] = test system: Candidatus Liberibacter asiaticus (Las); type: in vivo; settings: Example 6; Valencia sweet orange (4-year); BABA 0.2-1.0 mM, 2-DDG 100 μM; foliar spraying
[6] = test system: β-1,3-glucanase gene (PR-2), calS1, pp2; type: in vivo, Citrus sinensis; settings: for PR-2, calS1 or pp2 gene expression (in words): AA 60 μM, INA 0.1 mM
Midsweet orange [7] = test system: Midsweet orange; parameters: species or system Citrus sinensis; settings: in vivo
[8] = test system: β-1,3-glucanase gene (PR-2), calS1, pp2; type: in vivo, Citrus sinensis; settings: 2-DDG 100 μM
Midsweet orange [9] = type: in vivo, Citrus sinensis; settings: BABA 150 μM, INA 0.5 mM, AA 600 μM, CuSO4 0.3 mM, alone or combined
[10] = November 2013, BABA 15 μM, INA 0.1 mM, AA 60 μM
[11] = November 2013, BABA 0.2 mM, INA 0.1 mM, AA 60 μM, 2-DDG 10 μM
[12] = November 2013, BABA 1.0 mM, INA 0.5 mM, BTH 1.0 mM, AA 600 μM, 2-DDG 100 μM, alone or combined
[13] = October 2014 (end of the experiment), BABA 0.2 mM, INA 0.1 mM, AA 60 μM, 2-DDG 10 μM
[14] = October 2014 (end of the experiment), BABA 1.0 mM, INA 0.5 mM, BTH 1.0 mM, AA 600 μM, 2-DDG 100 μM, alone or combined
[15] = Trial 2 (September, 2014), trunk injection SA 8, OTC 7, OA, PPD, ICD, AA, BABA 5 mg ai/tree
[16] = Trial 1 (July, 2014), trunk injection SA 32, OA 40, PPD 40, ICD 67, OTC 50 mg ai/tree

Row | Structure (SMILES) | Las population [2, 11] | Las population [2, 13] | ΔCT = CT, 1 − CT, 0 [3, 15] | CT, 1 (mean CT values 1-week after injection) [3, 15] | CT, 0 (mean CT values prior to injection) [3, 15] | Effect on Las bacterial titer versus control one week after injection (in words) ([3]; trunk injection, both trials) | ΔCT = CT, 1 − CT, 0 [3, 16] | CT, 1 (mean CT values 1-week after injection) [3, 16] | CT, 0 (mean CT values prior to injection) [3, 16] | further results
1 | CC(N)CC(=O)O (racemic) [BABA, β-aminobutyric acid] | (3.45 ± 0.32) × 10^6 Cells/g of plant tissue | (5.84 ± 0.25) × 10^6 Cells/g of plant tissue | 0.50 | 22.60 | 22.10 | greatly decreased |  |  |  | Reduction of Las titer compared to control at the end of the experiments ([1]; Example 3, Midsweet orange (7-year), BABA 15 μM-150 μM, foliar spraying): 0.63 log unit per gram plant tissue; Las population [1, 10]: (3.67 ± 0.59) × 10^6 Cells/g of plant tissue; Las population ([1]; November 2013, BABA 150 μM): (6.48 ± 0.61) × 10^6 Cells/g of plant tissue; HLB disease severity (sAUDPS) reduced by, compared with the negative control (HLB disease; AA 60 μM, BABA 15 μM): 28.6%; HLB disease severity (sAUDPS) reduced by, compared with the negative control (HLB disease; BABA 150 μM): 21.4%; Reduction of Las titer compared to control at the end of the experiments ([2]; Example 4, Midsweet orange (8-year), BABA 0.2 mM, foliar spraying): 0.66 log unit per gram plant tissue; Las population [2, 12]: (4.23 ± 1.22) × 10^6 Cells/g of plant tissue; Las population [2, 14]: (0.95 ± 0.26) × 10^7 Cells/g of plant tissue; Reduction of Las titer compared to control at the end of the experiments [4]: 0.66 log unit per gram plant tissue; Reduction of Las titer compared to control at the end of the experiments [5]: 0.68 log unit per gram plant tissue; PR-2 gene expression (in words) ([6]; BABA 150 μM, 6 days after treatment): no significant change; PR-2 gene expression compared to the negative control ([6]; in vivo): 3.0 fold; pp2 (phloem protein-2) or calS1 expression (in words) ([6]; in vivo): no effect
2 | O=CC[C@@H](O)[C@H](O)[C@H](O)CO [2-DDG, 2-deoxy-D-glucose] | (4.45 ± 0.94) × 10^6 Cells/g of plant tissue | (0.91 ± 0.32) × 10^7 Cells/g of plant tissue |  |  |  |  |  |  |  | Fruit acidity (Midsweet orange [7]): 0.73 a percent citric acid and 0.67 a percent citric acid and 0.69 a percent citric acid and 0.66 a percent citric acid; Fruit brix (Midsweet orange [7]): 9.63 a and 10.41 a and 9.20 a and 10.10 a; Fruit brix acidity ratio (Midsweet orange [7]): 15.19 a and 13.19 a and 15.17 a and 13.33 a; PR-2, pp2 or calS1 induction (in words) [8]: not able to induce; Las population [2, 12]: (2.64 ± 0.76) × 10^6 Cells/g of plant tissue; Las population [2, 14]: (4.17 ± 1.02) × 10^6 Cells/g of plant tissue; Reduction of Las titer compared to control at the end of the experiments [4]: 0.66 log unit per gram plant tissue; Reduction of Las titer compared to control at the end of the experiments [5]: 0.70 log unit per gram plant tissue
3 | O=C1O[C@H]([C@@H](O)CO)C([O-])=C1O.[Na+] [AA, L-Ascorbic acid sodium salt, reference compound] | (2.99 ± 0.95) × 10^6 Cells/g of plant tissue | (3.98 ± 0.81) × 10^6 Cells/g of plant tissue | −0.50 | 21.65 | 22.15 |  |  |  |  | Fruit brix acidity ratio (Midsweet orange [7]; sodium salt): 14.87 a and 12.55 a; Percent juice content (Midsweet orange [7]; sodium salt): 53.3 a and 51.1 a; Las population [1, 10]: (3.56 ± 0.57) × 10^6 Cells/g of plant tissue; HLB disease severity (sAUDPS) reduced by, compared with the negative control (HLB disease; AA 60 μM, BABA 15 μM): 21.3%; Las population ([4]; Feb.2015, AA 600 μM, INA 0.5 mM, BTH 1.0 mM): (3.12 ± 0.22) × 10^7 a Cells/g of leaf tissue; PR-2, calS1 or pp2 gene expression (in words) [6]: not able to induce
4 | CSC(=O)c1cccc2nnsc12 [ASM, acibenzolar-S-methyl] |  |  |  |  |  |  |  |  |  | Effect on Las bacterial populations (in words) ([3]; trunk injection): moderately reduced
5 | O=S(=O)([O-])[O-].[Cu+2] [CuSO4, Copper Sulphate] |  |  |  |  |  |  |  |  |  | Yield (Midsweet orange [9]; 2013): 28.4 c kg/tree; Yield (Midsweet orange [9]; 2014): 24.1 c kg/tree
6 | O=[N+]([O-])NC1=NCCN1Cc1ccc(Cl)nc1 [ICD, imidacloprid] |  |  | 0.13 | 24.02 | 23.89 |  | 0.08 | 24.50 | 24.42 | Effect on Las bacterial titer versus control one week after injection (in words) ([3]; in vivo): did not statistically significantly reduce
7 | O=C(O)c1cc(Cl)nc(Cl)c1 [INA, 2,6-dichloro-isonicotinic acid, reference compound] | (2.07 ± 0.33) × 10^6 Cells/g of plant tissue | (3.91 ± 0.85) × 10^6 Cells/g of plant tissue |  |  |  | did not statistically significantly reduce |  |  |  | Percent juice content (Midsweet orange [7]): 50.5 a and 51.1 a; Las population [1, 10]: (4.06 ± 0.25) × 10^6 Cells/g of plant tissue; Las population ([1]; October 2014 (end of the experiment), BABA 15 μM, INA 0.1 mM, AA 60 μM): (5.94 ± 0.36) × 10^6 Cells/g of plant tissue; PR-2, calS1 or pp2 gene expression (in words) [6]: not able to induce
8 | O=C(O)C(=O)O [OA, oxalic acid] |  |  | 0.70 | 26.17 | 25.47 | significantly reduced | 2.83 | 26.59 | 23.76 | ΔCT compared with that of OTC (in words) ([3]; trunk injection): not significantly different
9 | CN(C)[C@@H]1C(O)=C(C(N)=O)C(=O)[C@@]2(O)C(O)=C3C(=O)c4c(O)cccc4[C@@](C)(O)[C@H]3[C@H](O)[C@@H]12 [OTC, oxytetracycline hydrochloride, reference compound] |  |  | 0.90 | 25.54 | 24.64 |  | 1.33 | 29.28 | 27.95 | 
10 | O=P([O-])([O-])O.[K+].[K+] [PPD, potassium phosphate dibasic, reference compound] |  |  | 0.34 | 23.63 | 23.29 |  | 2.64 | 26.56 | 23.92 | Effect on Las bacterial populations (in words) ([3]; trunk injection): moderately reduced
11 | O=C(O)c1ccccc1O [SA, salicylic acid] |  |  | 0.95 | 24.88 | 23.93 | significantly reduced | 1.73 | 25.34 | 23.61 | ΔCT compared with that of OTC (in words) ([3]; trunk injection): not significantly different
